# According to US20140349955A1, “USE OF FLUORINE-CONTAINING WATER SOLUBLE PLATINUM COMPLEX IN PREPARING DRUGS FOR PREVENTION AND TREATMENT OF CANCERS” (GUDUI BIOPHARMA TECHNOLOGY INC., priority 2011, published 2014):
# Key:
# A549 [1] = experiment: MTS cytotoxicity test, A549; assay type: cell-based; conditions: 96 h, read-out: IC50 value in human tumor cells
# Method: (§1) Containing 10% bovine fetal serum, 1 mM of sodium pyruvate, 2 mM of L-glutamine, 50 U/mL of penicillin, 50 μg/mL of streptomycin
# (§2) Human tumor cells: dul45-human prostate cancer; MCF-7-human breast cancer; SK0V3-human ovarian carcinoma, HT-29-human colon cancer; A549-human non-small cell lung cancer (adenocarcinoma), H460-human non-small cell lung cancer (large cell carcinoma), and animal tumor cells: L1210-mice leukemia cells used in the following activity test experiments were all purchased from Shanghai An Yan Commercial Trade Co., Ltd.
# (§3) MTS test method was used in cytotoxicity assay. The tumor cells of logarithmic phase were collected, and then the concentration of cell suspension was adjusted, 100 μL of the cell suspension was added to each well, the cells were placed at 1000-10000 cells/well (edge well filled with sterile PBS). Cells were incubated at 37° C. with 5% CO2 to make cell monolayer overspread the bottom of each well (96-well flat-bottomed microplate). 100 μL of different concentrations of the test compounds was added to each well. Each condition was measured in five replicates. The microplate was incubated at 37° C. with 5% CO2 for 96 h and checked with inverted microscope. MTS working reagent: To 2 mL of MTS (2 mg/mL, prepared by DPBS) was added 100 μL of PMS (1 mg/mL, prepared by DPBS). The cell culture medium was discarded after centrifugation, the cell culture plate was carefully washed 2-3 times with PBS. Before detecting the absorbance value (OD), to each sample containing well was added 100 μL of cell culture medium, then 20 μL of MTS working reagent was added. After incubation at 37° C. with 5% CO2 for 2 h, the OD (optical density) value was detected at 490 nm.
# (§4) Control group: the conditions are the same as the above without adding the active ingredient of antitumor agents, and the OD value was detected at 490 nm on the end of the experiment.
# (§5) The cell inhibiting rate of the drugs to tumor cell growth was calculated according to the following formula:
# (§6) 1) Cell viability (%)=OD of treated group/OD of control group×100%
# (§7) 2) The cell viabilities under the different drug concentrations were determined, and then plotted against drug concentration. The IC50 value is the corresponding concentration in the obtained curve when the cell viability was 50%.
# SKOV3 = experiment: MTS cytotoxicity test, SKOV3; assay type: cell-based; conditions: 96 h, read-out: IC50 value in human tumor cells
# Method: as §1, §2, §3, §4, §5, §6, §7
# MCF7 [2] = experiment: MTS cytotoxicity test, MCF7; assay type: cell-based; conditions: 96 h, read-out: IC50 value in human tumor cells
# Method: as §1, §2, §3, §4, §5, §6, §7
# HT29 [3] = experiment: MTS cytotoxicity test, HT29; assay type: cell-based; conditions: 96 h, read-out: IC50 value in human tumor cells
# Method: as §1, §2, §3, §4, §5, §6, §7
# DU145 [4] = experiment: MTS cytotoxicity test, DU145; assay type: cell-based; conditions: 96 h, read-out: IC50 value in human tumor cells
# Method: as §1, §2, §3, §4, §5, §6, §7
# H460 [5] = experiment: MTS cytotoxicity test, H460; assay type: cell-based; conditions: 96 h, read-out: IC50 value in human tumor cells
# Method: as §1, §2, §3, §4, §5, §6, §7
# L1210 tumor cells = experiment: Antitumor efficacy in L1210 tumor-bearing CDF1 mice (increase in life span); assay type: in vivo
# Method: In the following test, antitumor efficacy studies were performed using 8-9 weeks old female CDF1 mice, the average weight of the animal is 20-25 grams. L1210 tumor cells (about 10^5 cells per mouse) were inoculated intraperitoneally. The fluorine-containing water-soluble platinum complexes were used to treat the tumor-bearing animals and the efficacy was compared compared with the clinical platinum antitumor drugs. […] Drugs were administered intraperitoneally on day 1 and day 4 after tumor cell transplantation. The number of experimental animals in each group was 6.
# The experimental animals were purchased from Vital River Laboratory Animal Technology Co. Ltd., Tumor cells L1210-leukemia cells were purchased from Shanghai An Yan Commercial Trade Co. Ltd.
# The increase in life span (ILS) is calculated as follows:
# Wherein, St=the weighted median survival time of treated animals; Su=the weighted median survival time of untreated animals
# A549 [6] = experiment: Synergistic cytotoxicity test (MTS), A549; assay type: cell-based, human; conditions: 96 h
# Method: (§8) Containing 10% bovine fetal serum, 1 mM of sodium pyruvate, 2 mM of L-glutamine, 50 U/mL of penicillin, 50 μg/ mL of streptomycin.
# as §2, with “du145-human” for “dul45-human”
# as §3, with “certain concentration solution of a mixture” for “different concentrations”, “fluorine-containing water-soluble platinum complex with other antitumor agents” for “test compounds”
# (§9) Each of above experiment was repeated five times, and the cell viability was calculated according to the mean OD values.
# (§10) Cell Viability (%)=(treated group OD value/control group OD value)×100
# (§11) Control group: the conditions are the same as the above without adding the tested drug mixture (100 μL of culture medium was added in stead), and finally the absorbance was measured at 490 nm to obtain the OD value of the tumor cells.
# (§12) Drug Group-1: only the fluorine-containing water-soluble platinum complex was added under the above conditions to obtain cell viability of tumor cells.
# (§13) Drug Group-2: only the other chemotherapeutic drug (active ingredient) was added under the above conditions to obtain cell viability of tumor cells.
# (§14) Drug Combination Group: the fluorine-containing water-soluble platinum complex and other chemotherapeutic drugs were added simultaneously under the above conditions to obtain cell viability of tumor cell. (2) Evaluation Method:
# (§15) When the fluorine-containing water-soluble platinum complexes used in combination with other chemotherapy drugs, the inhibition effect on cancer cell proliferation is enhanced or synergistic, and the effect was calculated using the following formula:
# (§16) Combination Effect (%)={[(A1-X)+(A2-X)]/(A1-A2)|}×100
# (§17) wherein, A1 is the cell viability of drug group-1, A2 is the cell viability of drug group-2, X is the cell viability of drug combination group, (A1-A2)| is the absolute value of the cell viability difference between the two groups.
# (§18) Calculated according to the above formula, when the results of [Combination Effect (%)]>+100%, that means the effect of inhibition on cell proliferation is enhanced or synergistic (3) Experimental Result: […]
# SK0V3 = experiment: Synergistic cytotoxicity test (MTS), SKOV3; assay type: cell-based, human; conditions: 96 h
# Method: as §8
# as §2, with “du145-human” for “dul45-human”
# as §3, with “certain concentration solution of a mixture” for “different concentrations”, “fluorine-containing water-soluble platinum complex with other antitumor agents” for “test compounds”
# as §9, §10, §11, §12, §13, §14, §15, §16, §17, §18
# MCF7 [7] = experiment: Synergistic cytotoxicity test (MTS), MCF7; assay type: cell-based, human; conditions: 96 h
# Method: as §8
# as §2, with “du145-human” for “dul45-human”
# as §3, with “certain concentration solution of a mixture” for “different concentrations”, “fluorine-containing water-soluble platinum complex with other antitumor agents” for “test compounds”
# as §9, §10, §11, §12, §13, §14, §15, §16, §17, §18
# HT29 [8] = experiment: Synergistic cytotoxicity test (MTS), HT29; assay type: cell-based, human; conditions: 96 h
# Method: as §8
# as §2, with “du145-human” for “dul45-human”
# as §3, with “certain concentration solution of a mixture” for “different concentrations”, “fluorine-containing water-soluble platinum complex with other antitumor agents” for “test compounds”
# as §9, §10, §11, §12, §13, §14, §15, §16, §17, §18
# DU145 [9] = experiment: Synergistic cytotoxicity test (MTS), DU145; assay type: cell-based, human; conditions: 96 h
# Method: as §8
# as §2, with “du145-human” for “dul45-human”
# as §3, with “certain concentration solution of a mixture” for “different concentrations”, “fluorine-containing water-soluble platinum complex with other antitumor agents” for “test compounds”
# as §9, §10, §11, §12, §13, §14, §15, §16, §17, §18
# H460 [10] = experiment: Synergistic cytotoxicity test (MTS), H460; assay type: cell-based, human; conditions: 96 h
# Method: as §8
# as §2, with “du145-human” for “dul45-human”
# as §3, with “certain concentration solution of a mixture” for “different concentrations”, “fluorine-containing water-soluble platinum complex with other antitumor agents” for “test compounds”
# as §9, §10, §11, §12, §13, §14, §15, §16, §17, §18
# [11] = 50 mg/Kg i.p. on day 1 and day 4
# [12] = 100 mg/Kg i.p. on day 1 and day 4
# [13] = 200 mg/Kg i.p. on day 1 and day 4
# [14] = other chemotherapy drug (at its listed dosage) combined with Complex 2 (dosage: 1 μM)
# [15] = other chemotherapy drug (at its listed dosage) combined with Complex 3 (dosage: 1 μM)
# [16] = other chemotherapy drug (at its listed dosage) combined with Complex 5 (dosage: 1 μM)
# [17] = other chemotherapy drug (at its listed dosage) combined with Complex 6 (dosage: 1 μM)
smiles,measurement,setting,value
O=C1[O][Pt]2([NH]C3CCCCC3[NH]2)[O]C(=O)C1(F)CCCOC1OC(CO)C(O)C(O)C1O (centres unmarked) [Complex 6],IC50,A549 [1],21.8 µM
same,IC50,SKOV3,22.2 µM
same,IC50,MCF7 [2],2.04 µM
same,IC50,HT29 [3],2.3 µM
same,IC50,DU145 [4],9.96 µM
same,IC50,H460 [5],22.4 µM
O=C1[O][Pt]2([NH]C3CCCCC3[NH]2)[O]C(=O)C1(F)CCOC1OC(CO)C(O)C(O)C1O (centres unmarked) [Complex 8],IC50,A549 [1],5.12 µM
same,IC50,SKOV3,49.4 µM
same,IC50,MCF7 [2],5.1 µM
same,IC50,HT29 [3],1.07 µM
same,IC50,DU145 [4],5.11 µM
same,IC50,H460 [5],10 µM
O=C1[O][Pt]2([NH]C3CCCCC3[NH]2)[O]C(=O)C1(F)CCCOC1OC(CO)C(O)C(O)C1O (centres unmarked) [Complex 9],IC50,A549 [1],10.2 µM
same,IC50,SKOV3,21.3 µM
same,IC50,MCF7 [2],6.71 µM
same,IC50,HT29 [3],1.2 µM
same,IC50,DU145 [4],7.04 µM
same,IC50,H460 [5],21.4 µM
same,ILS (%),L1210 tumor cells; [11],>400%
same,Survived Animals on Day 42,L1210 tumor cells; [11],6/6
same,Weight Changes (g),"L1210 tumor cells; 50 mg/Kg i.p. on day 1 and day 4, weight changes from the first day to the seventh day",+1.5 g
same,ILS (%),L1210 tumor cells; [12],>400%
same,Survived Animals on Day 42,L1210 tumor cells; [12],6/6
same,Weight Changes (g),"L1210 tumor cells; 100 mg/Kg i.p. on day 1 and day 4, weight changes from the first day to the seventh day",+0.1 g
same,ILS (%),L1210 tumor cells; [13],>400%
same,Survived Animals on Day 42,L1210 tumor cells; [13],6/6
same,Weight Changes,"L1210 tumor cells; 200 mg/Kg i.p. on day 1 and day 4, weight changes from the first day to the seventh day",-0.5 g
N.N.[Cl][Pt+2][Cl] [Transplatin],the effect of drug combination (Combination Effect),A549 [6]; [14],⊚ (⊚ represents the effect of drug combination > 300%)
same,the effect of drug combination (Combination Effect),A549 [6]; [15],⊚ (⊚ represents the effect of drug combination > 300%)
same,the effect of drug combination (Combination Effect),"SK0V3; other chemotherapy drug (at its listed dosage) combined with Complex 2 (dosage: 1 μM), SLOV3",○ (○ represents: 100% < the effect of drug combination < 300%)
same,the effect of drug combination (Combination Effect),"SK0V3; other chemotherapy drug (at its listed dosage) combined with Complex 3 (dosage: 1 μM), SlOV3",○ (○ represents: 100% < the effect of drug combination < 300%)
same,the effect of drug combination (Combination Effect),"SK0V3; other chemotherapy drug (at its listed dosage) combined with Complex 5 (dosage: 1 μM), SLOV3",○ (○ represents: 100% < the effect of drug combination < 300%)
same,the effect of drug combination (Combination Effect),"SK0V3; other chemotherapy drug (at its listed dosage) combined with Complex 6 (dosage: 1 μM), SLOV3",○ (○ represents: 100% < the effect of drug combination < 300%)
same,the effect of drug combination (Combination Effect),MCF7 [7]; [14],⊚ (⊚ represents the effect of drug combination > 300%)
same,the effect of drug combination (Combination Effect),MCF7 [7]; [15],⊚ (⊚ represents the effect of drug combination > 300%)
same,the effect of drug combination (Combination Effect),MCF7 [7]; [16],⊚ (⊚ represents the effect of drug combination > 300%)
same,the effect of drug combination (Combination Effect),MCF7 [7]; [17],⊚ (⊚ represents the effect of drug combination > 300%)
same,the effect of drug combination (Combination Effect),HT29 [8]; [14],⊚ (⊚ represents the effect of drug combination > 300%)
same,the effect of drug combination (Combination Effect),HT29 [8]; [15],⊚ (⊚ represents the effect of drug combination > 300%)
same,the effect of drug combination (Combination Effect),HT29 [8]; [16],⊚ (⊚ represents the effect of drug combination > 300%)
same,the effect of drug combination (Combination Effect),HT29 [8]; [17],⊚ (⊚ represents the effect of drug combination > 300%)
same,the effect of drug combination (Combination Effect),DU145 [9]; [14],○ (○ represents: 100% < the effect of drug combination < 300%)
same,the effect of drug combination (Combination Effect),DU145 [9]; [15],○ (○ represents: 100% < the effect of drug combination < 300%)
same,the effect of drug combination (Combination Effect),DU145 [9]; [16],○ (○ represents: 100% < the effect of drug combination < 300%)
same,the effect of drug combination (Combination Effect),DU145 [9]; [17],○ (○ represents: 100% < the effect of drug combination < 300%)
same,the effect of drug combination (Combination Effect),H460 [10]; [16],⊚ (⊚ represents the effect of drug combination > 300%)
same,the effect of drug combination (Combination Effect),H460 [10]; [17],⊚ (⊚ represents the effect of drug combination > 300%)
